In series [1] the test system is AKR1C3. Conditions: reported in literature; cited from earlier work.
The subject of series [2] is H460 cell line. Nature of the series: Cell proliferation inhibition by combining Naproxen or TH-3021 and AST-3424 in different sequence of administration (CTG). It counts as cell-based, human. Conditions: for effect of subsequent addition on the efficacy of AST-3424: Group 3: added after 2 h AST-3424 pretreatment and washing. As for the experimental part: The following are the different treatment methods. […] The plate was shaken gently to ensure uniform mixing, and placed in the incubator for 2 hours. […] The plate was shaken gently to ensure uniform mixing, and placed in the incubator for 2 hours. Subsequently, the plate was washed to remove the compound, and placed in the incubator at 37° C. with 5% CO2 for further 72 hours. […] The plate was shaken gently to ensure uniform mixing, and placed in the incubator for 2 hours. Subsequently, the plate was washed to remove the compounds, and placed in the incubator at 37° C. with 5% CO2 for 72 hours. […] The plate was shaken gently to ensure uniform mixing, and placed in the incubator for 2 hours. […] The plate was shaken gently to ensure uniform mixing, and placed in the incubator for 2 hours. Subsequently, the plate was washed to remove the compounds, and placed in the incubator at 37° C. with 5% CO2 for further 72 hours. […] The plate was shaken gently to ensure uniform mixing, and placed in the incubator for 2 hours. […] The plate was shaken gently to ensure uniform mixing, and placed in the incubator for 2 hours. Subsequently, the plate was washed to remove the compounds, and placed in the incubator at 37° C. with 5% CO2 for further 72 hours. b) Administrating single drug: after 24 hours of cell seeding, the compound was administered alone. […] The plate was shaken gently to ensure uniform mixing, and placed in the incubator at 37° C. with 5% CO2 for 2 hours. Subsequently, the compound was washed off, and each well was added with fresh medium. The plate was placed in the incubator at 37° C. with 5% CO2 for further 72 hours.

The conditions of series [3]: cited from earlier work; for AUC0-t / Cmax / T1/2 / Tmax: patients, mean.
Series [4] has as its system H460 cell line. Nature of the series: In vitro cell proliferation inhibition with the drug combination (CTG method). It counts as cell-based, human. Conditions: combined with AST-3424. As to the method: • a) H460 cells (human non-small lung cancer cells, AKR1C3 enzyme highly expressed) were cultured in RPMI-1640 medium, added with 10% FBS and 1% double antibody, and placed at 37° C. and 5% CO2 for culturing.
• a) The cells were routinely cultured until the cell saturation was 80%-90%, and when the required quantity was reached, the cells were collected. • b) The cells were resuspended with the corresponding medium and cell counts were performed to prepare a cell suspension with appropriate density. • c) The cell suspension was added to a 96-well plate with 100 μL per well, and the cell density was 2,000 cells per well. • d) The cells were incubated overnight in an incubator at 37° C. with 5% CO2. 1.1.3 Treating Cells with Compound (72 Hours)
AST-3424 alone: after 24 hours of cell seeding, AST-3424 was administered alone. Specifically, each well was supplemented with 99 μL of growth medium, and then added with 1 μL of the prepared AST-3424 solution to form different concentrations of AST-3424. The plate was shaken gently to ensure uniform mixing, and placed in an incubator at 37° C. with 5% CO2.
The cell plates were placed in the incubator for 72 hours.
1.1.4 Treating Cells with Compound (2 Hours) • a) Administrating single drug: after 24 hours of cell seeding, AST-3424 was administered alone. Specifically, each well was supplemented with 99 μL of growth medium, and then added with 1 μL of the prepared AST-3424 solution to form different concentrations of AST-3424. The plate was shaken gently to ensure uniform mixing, and placed in the incubator for 2 hours. […] The plate was shaken gently to ensure uniform mixing. After the plate was placed in the incubator for 2 hours, 1 μL of the prepared AST-3424 solution was added to form different concentrations of AST-3424. The plate was shaken gently to ensure uniform mixing, and placed in the incubator at 37° C. with 5% CO2 for another 2 hours. Then, the supernatant was discarded, and the remainder was washed twice with growth medium and added with 200 μL of fresh medium.
1.1.6 Detecting with CTG Method • a) The cell plate to be tested was placed at room temperature to equilibrium for 30 minutes, and 100 μL of culture medium was discarded from each well. • b) 25 μL CTG reagent (CelltiterGlo kit) was added to each well. The plate was placed on a fast shaker to shake for 2 minutes, and then placed at room temperature away from light for 30 minutes. • c) The chemiluminescent signal value was read with multifunctional microplate reader at reading time of 1000 ms.
IC50 was calculated with GraphPad Prism 5 software, and the IC50 (half maximal inhibitory concentration) of the compound was obtained using the following nonlinear fitting formula: […]

[5] abbreviates: OBI-3424 dose level 1 mg/m^2, infusion.
[6] abbreviates: OBI-3424 dose level 2 mg/m^2, infusion.
[7] abbreviates: OBI-3424 dose level 4 mg/m^2, infusion.
Where [8] appears, read: OBI-3424 dose level 6 mg/m^2, infusion.
[9] abbreviates: OBI-3424 dose level 8 mg/m^2, infusion.
[10] abbreviates: OBI-3424 dose level 10 mg/m^2, infusion.
[11] abbreviates: OBI-3424 dose level 12 mg/m^2, infusion.
The mark [12] stands for this setting: OBI-3424 dose level 14 mg/m^2, infusion.

Where two headings read alike, the source gives them in different places.

For `Cc1ccc(Cl)c(Nc2ccccc2C(=O)O)c1Cl` [Meclofenamic Acid], the AKR1C3 inhibitory activity entry in series [1] is reported as “have AKR1C3 inhibitory activity”.
On to `Cc1ccc(C(=O)c2ccc(CC(=O)O)n2C)cc1` [Tolmetin], for which the AKR1C3 inhibitory activity entry in series [1] is reported as “have AKR1C3 inhibitory activity”.
As for `O=C(N1CCOCC1)N1CCN(c2ccc(Cl)cc2Cl)CC1` [TH-3021, reference compound], the “effect of subsequent addition on the efficacy of AST-3424” value in series [2] is “no longer affected the efficacy of AST-3424”. Besides, the “difference in IC50 values of AST-3424 (fold)” value was 6 fold in series [2] (group 1 (TH-3021 pretreatment, washed off)); 200 fold in series [2] (groups 2 and 4 (TH-3021 present together with AST-3424)). Also, the AKR1C3 inhibitory activity entry in series [1] is “specific inhibitor of AKR1C3”.
Usually Cmax stands for the maximum level reached in the sampled fluid or tissue. The term Tmax denotes the time at which the peak concentration occurs. `O=P(O)(N1CC1)N1CC1` [OBI-2660]: the “AUC0-t” value in series [3] (setting [5]) is 7.30 ng·h/mL; in series [3] (setting [6]) it was 10.00 ng·h/mL; in series [3] (setting [7]) it was 19.30 ng·h/mL; in series [3] (setting [8]), 27.40 ng·h/mL; in series [3] (setting [9]) it was 32.80 ng·h/mL; in series [3] (setting [10]) it was 29.20 ng·h/mL. Further, the “AUC0-t” value was 56.60 ng·h/mL in series [3] (setting [11]) and 45.60 ng·h/mL in series [3] (setting [12]). The maximum concentration (Cmax) is listed as 1.70 ng/mL in series [3] (setting [5]); 2.30 ng/mL in series [3] (setting [6]); 5.00 ng/mL in series [3] (setting [7]); 6.80 ng/mL in series [3] (setting [8]); 8.50 ng/mL in series [3] (setting [9]); 10.10 ng/mL in series [3] (setting [10]). Also, the figures for the “Cmax” value in series [3] (setting [11]) and in series [3] (setting [12]) were 13.10 ng/mL and 11.20 ng/mL, respectively. Moreover, the “T1/2” value was 3.08 h in series [3] (setting [5]); 2.48 h in series [3] (setting [6]); 2.00 h in series [3] (setting [7]); 2.09 h in series [3] (setting [8]); 1.87 h in series [3] (setting [9]); 2.99 h in series [3] (setting [10]). The “T1/2” value in series [3] (setting [11]) was 2.41 h; in series [3] (setting [12]), 2.46 h. In addition, the “Tmax” value in series [3] (setting [5]) is recorded as 1.75 h; in series [3] (setting [6]), 1.67 h; in series [3] (setting [7]) it was 1.33 h; in series [3] (setting [8]), 1.75 h; in series [3] (setting [9]) it was 1.44 h; in series [3] (setting [10]), 1.67 h. In addition, the figures for the time to peak (Tmax) in series [3] (setting [11]) and in series [3] (setting [12]) were 1.53 h and 1.75 h, respectively. Besides, in series [3] (between the two doses (Cycle 1 Day1 and Cycle 1 Day8)), the “accumulation of exposure (Cmax and AUC)” value is listed as “no accumulation of exposure”.
Take `CC(=O)Nc1ccc(O)cc1` [Paracetamol]: in series [1], the AKR1C3 inhibitory activity result was “have AKR1C3 inhibitory activity”.
For the compound `Cc1cc(CC(=O)O)n(C)c1C(=O)c1ccc(Cl)cc1` [Zomepirac], the AKR1C3 inhibitory activity entry in series [1] is on record as “have AKR1C3 inhibitory activity”.
On to `CC(C(=O)O)c1ccc(-c2ccccc2)c(F)c1` (stereo not shown) [Flurbiprofen], for which the AKR1C3 inhibitory activity result in series [1] is on record as “have AKR1C3 inhibitory activity”.
`O=C(O)Cc1ccccc1Nc1c(Cl)cccc1Cl` [Diclofenac]: the AKR1C3 inhibitory activity entry in series [1] was “have AKR1C3 inhibitory activity”.
For `CC(=O)Oc1ccccc1C(=O)O` [Aspirin], the AKR1C3 inhibitory activity result in series [1] is “have AKR1C3 inhibitory activity”.
`CC1=C(CC(=O)O)c2cc(F)ccc2/C1=C\c1ccc([S+](C)[O-])cc1` (stereo not shown) [Sulindac]: the AKR1C3 inhibitory activity entry in series [1] is given as “have AKR1C3 inhibitory activity”.
With `Cc1cccc(Nc2ccccc2C(=O)O)c1C` [Mefenamic acid], the AKR1C3 inhibitory activity result in series [1] was “have AKR1C3 inhibitory activity”.
As to `COc1ccc2cc([C@H](C)C(=O)O)ccc2c1` [Naproxen, reference compound], the “effect of the combination on the cell proliferation inhibitory activity of AST-3424” value in series [4] was “significantly affect”. In series [2], the “effect of subsequent addition on the efficacy of AST-3424” value is “no longer affected the efficacy of AST-3424”. The AKR1C3 inhibitory activity entry in series [1] was “have AKR1C3 inhibitory activity”.
As to `O=C([O-])c1ccccc1O.[Na+]` [Sodium salicylate], the AKR1C3 inhibitory activity entry in series [1] is “have AKR1C3 inhibitory activity”.
As to `CC(C(=O)O)c1cccc(Oc2ccccc2)c1` (stereo not shown) [Fenoprofen], the AKR1C3 inhibitory activity entry in series [1] is “have AKR1C3 inhibitory activity”.
On to `COc1ccc2c(c1)c(CC(=O)O)c(C)n2C(=O)c1ccc(Cl)cc1` [Indomethacin], for which the AKR1C3 inhibitory activity entry in series [1] was “has AKR1C3 inhibitory activity”.

The record behind these values is US20260130928A1, “COMBINATION OF AKR1C3 ACTIVATED ANTICANCER PRODRUG COMPOUND AND ANALGESIC DRUG FOR TREATING CANCER PATIENTS ACCOMPANIED BY PAIN” (ASCENTAWITS PHARMACEUTICALS, LTD., priority 2022, published 2026).
